Assay results taken from PubChem BioAssay (NCI).
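In this assay, cells in 96-well plates receive the compound at five concentrations for 48 hours. Endpoints are linearly interpolated between the surrounding concentrations. TGI denotes the concentration required for complete inhibition of growth.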

Experiments:
Assay in all cases: inhibition of tumour cell growth, NCI panel, 48 h
SNB-19 CNS = tested on: SNB-19 CNS
SF-268 CNS = tested on: SF-268 CNS
HCT-116 colon = tested on: HCT-116 colon
SF-539 CNS = tested on: SF-539 CNS
SK-MEL-2 melanoma = tested on: SK-MEL-2 melanoma
HOP-62 NSCLC = tested on: HOP-62 NSCLC
EKVX NSCLC = tested on: EKVX NSCLC
CCRF-CEM leukemia = tested on: CCRF-CEM leukemia
SK-MEL-28 melanoma = tested on: SK-MEL-28 melanoma
BT-549 breast = tested on: BT-549 breast
K-562 leukemia = tested on: K-562 leukemia
MCF7 breast = tested on: MCF7 breast
OVCAR-8 ovarian = tested on: OVCAR-8 ovarian
HL-60(TB) leukemia = tested on: HL-60(TB) leukemia
COLO 205 colon = tested on: COLO 205 colon
U251 CNS = tested on: U251 CNS
PC-3 prostate = tested on: PC-3 prostate
HOP-92 NSCLC = tested on: HOP-92 NSCLC
786-0 renal = tested on: 786-0 renal
TK-10 renal = tested on: TK-10 renal
SK-OV-3 ovarian = tested on: SK-OV-3 ovarian
KM12 colon = tested on: KM12 colon
UACC-257 melanoma = tested on: UACC-257 melanoma
M14 melanoma = tested on: M14 melanoma
A549 NSCLC = tested on: A549 NSCLC
HT29 colon = tested on: HT29 colon
MDA-MB-231 breast = tested on: MDA-MB-231 breast
SW-620 colon = tested on: SW-620 colon
RPMI-8226 leukemia = tested on: RPMI-8226 leukemia
NCI-H23 lung = tested on: NCI-H23 lung
MALME-3M melanoma = tested on: MALME-3M melanoma
MDA-MB-435 = tested on: MDA-MB-435
SNB-75 CNS = tested on: SNB-75 CNS
RXF 393 renal = tested on: RXF 393 renal
OVCAR-3 ovarian = tested on: OVCAR-3 ovarian
LOX IMVI melanoma = tested on: LOX IMVI melanoma
CAKI-1 renal = tested on: CAKI-1 renal
NCI-H226 lung = tested on: NCI-H226 lung
OVCAR-4 ovarian = tested on: OVCAR-4 ovarian
ACHN renal = tested on: ACHN renal
NCI-H522 lung = tested on: NCI-H522 lung
T-47D breast = tested on: T-47D breast
UACC-62 melanoma = tested on: UACC-62 melanoma
HS 578T breast = tested on: HS 578T breast
HCT-15 colon = tested on: HCT-15 colon
NCI-H460 lung = tested on: NCI-H460 lung
MDA-N = tested on: MDA-N
SK-MEL-5 melanoma = tested on: SK-MEL-5 melanoma
SR leukemia = tested on: SR leukemia
OVCAR-5 ovarian = tested on: OVCAR-5 ovarian
A498 renal = tested on: A498 renal
SN12C renal = tested on: SN12C renal
IGROV1 ovarian = tested on: IGROV1 ovarian
NCI/ADR-RES ovarian = tested on: NCI/ADR-RES ovarian
DU-145 prostate = tested on: DU-145 prostate
SF-295 CNS = tested on: SF-295 CNS
HCC-2998 colon = tested on: HCC-2998 colon
UO-31 renal = tested on: UO-31 renal
MOLT-4 leukemia = tested on: MOLT-4 leukemia

N#CC1CNC(N)NC1N (configuration not stated)
TGI (SNB-19 CNS): > 100 µM | TGI (SF-268 CNS): > 100 µM | TGI (HCT-116 colon): > 100 µM | TGI (SF-539 CNS): > 100 µM | TGI (SK-MEL-2 melanoma): > 100 µM | TGI (HOP-62 NSCLC): > 100 µM | TGI (EKVX NSCLC): > 100 µM | TGI (CCRF-CEM leukemia): 34.6 µM | TGI (SK-MEL-28 melanoma): > 100 µM | TGI (BT-549 breast): > 100 µM | TGI (K-562 leukemia): > 100 µM | TGI (MCF7 breast): > 100 µM | TGI (OVCAR-8 ovarian): > 100 µM | TGI (HL-60(TB) leukemia): > 100 µM | TGI (COLO 205 colon): > 100 µM | TGI (U251 CNS): > 100 µM | TGI (PC-3 prostate): > 100 µM | TGI (HOP-92 NSCLC): > 100 µM | TGI (786-0 renal): > 100 µM | TGI (TK-10 renal): > 100 µM | TGI (SK-OV-3 ovarian): > 100 µM | TGI (KM12 colon): > 100 µM | TGI (UACC-257 melanoma): > 100 µM | TGI (M14 melanoma): > 100 µM | TGI (A549 NSCLC): > 100 µM | TGI (HT29 colon): > 100 µM | TGI (MDA-MB-231 breast): > 100 µM | TGI (SW-620 colon): > 100 µM | TGI (RPMI-8226 leukemia): > 100 µM | TGI (NCI-H23 lung): > 100 µM | TGI (MALME-3M melanoma): > 100 µM | TGI (MDA-MB-435): > 100 µM | TGI (SNB-75 CNS): > 100 µM | TGI (RXF 393 renal): > 100 µM | TGI (OVCAR-3 ovarian): > 100 µM | TGI (LOX IMVI melanoma): > 100 µM | TGI (CAKI-1 renal): > 100 µM | TGI (NCI-H226 lung): > 100 µM | TGI (OVCAR-4 ovarian): > 100 µM | TGI (ACHN renal): > 100 µM | TGI (NCI-H522 lung): > 100 µM | TGI (T-47D breast): > 100 µM | TGI (UACC-62 melanoma): > 100 µM | TGI (HS 578T breast): > 100 µM | TGI (HCT-15 colon): > 100 µM | TGI (NCI-H460 lung): > 100 µM | TGI (MDA-N): > 100 µM | TGI (SK-MEL-5 melanoma): > 100 µM | TGI (SR leukemia): > 100 µM | TGI (OVCAR-5 ovarian): > 100 µM | TGI (A498 renal): > 100 µM | TGI (SN12C renal): > 100 µM | TGI (IGROV1 ovarian): > 100 µM | TGI (NCI/ADR-RES ovarian): > 100 µM | TGI (DU-145 prostate): > 100 µM | TGI (SF-295 CNS): > 100 µM

CCOC(=O)C1(O)C(=O)C2=C3C(=O)OC(C4OC(=O)c5c(c(O)c(O)c(O)c5C31)-c1c(cc(O)c(O)c1O)C(=O)OC1COC(=O)c3cc(O)c(O)c(O)c3-c3c(cc(O)c(O)c3O)C(=O)OC14)[C@@H]2O (some centres not stated)
TGI (SNB-19 CNS): > 100 µM | TGI (SF-268 CNS): 52.9 µM | TGI (HCT-116 colon): 30.8 µM | TGI (SK-MEL-2 melanoma): 94.7 µM | TGI (HOP-62 NSCLC): > 100 µM | TGI (EKVX NSCLC): 38.4 µM | TGI (CCRF-CEM leukemia): 52.6 µM | TGI (SK-MEL-28 melanoma): > 100 µM | TGI (BT-549 breast): 61.5 µM | TGI (K-562 leukemia): 56.9 µM | TGI (MCF7 breast): 40.1 µM | TGI (OVCAR-8 ovarian): 39.5 µM | TGI (HL-60(TB) leukemia): 72.7 µM | TGI (COLO 205 colon): 35.4 µM | TGI (U251 CNS): 44.2 µM | TGI (PC-3 prostate): > 100 µM | TGI (HOP-92 NSCLC): 86.5 µM | TGI (786-0 renal): 39.4 µM | TGI (SK-OV-3 ovarian): > 100 µM | TGI (KM12 colon): > 100 µM | TGI (UACC-257 melanoma): > 100 µM | TGI (M14 melanoma): 67.6 µM | TGI (A549 NSCLC): 44.4 µM | TGI (HT29 colon): 51.3 µM | TGI (MDA-MB-231 breast): 36.1 µM | TGI (SW-620 colon): 54.5 µM | TGI (RPMI-8226 leukemia): 85 µM | TGI (NCI-H23 lung): 39.5 µM | TGI (MALME-3M melanoma): 95.8 µM | TGI (HCC-2998 colon): 95.4 µM | TGI (MDA-MB-435): 33.4 µM | TGI (RXF 393 renal): 36.8 µM | TGI (UO-31 renal): > 100 µM | TGI (OVCAR-3 ovarian): 85.4 µM | TGI (LOX IMVI melanoma): 39.3 µM | TGI (CAKI-1 renal): 25.9 µM | TGI (NCI-H226 lung): 48.6 µM | TGI (OVCAR-4 ovarian): 45.1 µM | TGI (ACHN renal): 35.2 µM | TGI (NCI-H522 lung): 53.6 µM | TGI (T-47D breast): > 100 µM | TGI (UACC-62 melanoma): 43.1 µM | TGI (HS 578T breast): > 100 µM | TGI (HCT-15 colon): 40.8 µM | TGI (NCI-H460 lung): > 100 µM | TGI (MOLT-4 leukemia): 57.2 µM | TGI (MDA-N): 37.8 µM | TGI (SK-MEL-5 melanoma): 27.8 µM | TGI (SR leukemia): > 100 µM | TGI (OVCAR-5 ovarian): 35.3 µM | TGI (A498 renal): > 100 µM | TGI (SN12C renal): 35.4 µM | TGI (IGROV1 ovarian): 79.5 µM | TGI (NCI/ADR-RES ovarian): > 100 µM | TGI (DU-145 prostate): > 100 µM | TGI (SF-295 CNS): 43 µM
